Test [1] deals with T1, GnmP.
T1 construct: N-terminal His6-tagged GnmP, E. coli BL21(DE3), plasmid pBS21021
Put plainly: HPLC of S-methylated product. The following applies: 2 mM SAM; 50 mM sodium phosphate pH 8.0; 28 °C. The class given is biochemical, Streptomyces sp. CB01883.

In a further test the test system is T2, GnmT-SH.
T2 construct: N-terminal His6 tag (same procedure as GnmP), E. coli, plasmid pBS21022; PLP-dependent
Put plainly: pyruvate release, OPD derivatization, HPLC. The following applies: 0.2 mM PLP, 20 mM KCl, 28 °C. It counts as biochemical, Streptomyces sp. CB01883.

A further test has as its system T3, WsmR-SH.
T3 construct: N-terminal His6 tag (same procedure as GnmP), E. coli, plasmid pBS22010; PLP-dependent
In words: pyruvate release, OPD derivatization, HPLC. The class given is biochemical, Streptomyces sp. CB02120-2. The following applies: 0.2 mM PLP, 20 mM KCl, 28 °C.

The target in a further test is T4, LnmJ-SH (Streptomyces atroolivaceus, UniProt Q8GGP2).
T4 construct: E. coli, plasmid pBS3109, published procedure; PLP-dependent
In words: pyruvate release, OPD derivatization, HPLC. The conditions noted are these: 0.2 mM PLP, 20 mM KCl, 28 °C. The class given is biochemical.

Test [2] concerns T1, GnmP. In words: HPLC of methylated product […], WsmR-SH coupled. The class given is biochemical, Streptomyces sp. CB01883. The following applies: 7 generated in situ from 9 as surrogate substrate by 220 µM WsmR-SH; 2 mM SAM; 50 mM sodium phosphate pH 8.0; 28 °C; methods print substrate range in mM.

T4 sequence (Q8GGP2 entry or part of it): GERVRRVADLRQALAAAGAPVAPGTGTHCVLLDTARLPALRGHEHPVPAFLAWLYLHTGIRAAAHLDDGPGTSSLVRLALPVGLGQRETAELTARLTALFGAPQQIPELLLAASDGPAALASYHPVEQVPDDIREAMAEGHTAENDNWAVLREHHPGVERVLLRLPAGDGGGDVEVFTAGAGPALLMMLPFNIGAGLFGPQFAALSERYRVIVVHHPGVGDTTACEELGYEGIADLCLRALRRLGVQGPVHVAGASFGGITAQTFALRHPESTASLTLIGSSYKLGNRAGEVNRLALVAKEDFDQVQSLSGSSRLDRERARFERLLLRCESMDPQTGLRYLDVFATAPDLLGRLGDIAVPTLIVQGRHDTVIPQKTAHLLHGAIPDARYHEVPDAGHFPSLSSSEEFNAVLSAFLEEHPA

Broadly, the Km is the substrate concentration at which the rate is half of its maximum. As to GNM B [compound 4], the Km in the test with GnmP [1] came to 0.0121 ± 0.0022 mM.
As to `CC(=O)NCCSC(=O)CC(C)(C)SC[C@H](N)C(=O)O` [compound 16, N-acetylcysteamine thioester (SNAC) of a truncated L-cysteine-polyketide adduct], the Michaelis-Menten constant (Km) in the test with GnmT-SH (50 mM sodium phosphate pH 7.2) turned out to be 41 ± 5 mM; with WsmR-SH (50 mM sodium phosphate pH 7.2), 54 ± 10 mM; at LnmJ-SH (50 mM sodium phosphate pH 7.2) it was 69 ± 11 mM.
As for L-cysteinyl-GNM B adduct [compound 9], the Km worked out at 3.2 ± 0.3 mM in the test on GnmT-SH (50 mM sodium phosphate pH 8.0), 1.45 ± 0.12 mM with WsmR-SH (50 mM sodium phosphate pH 8.0) and 7.04 ± 0.84 mM at LnmJ-SH (Tris-HCl pH 8.5).
Take `CC(=O)NCCSC(=O)CC(C)(C)SSC[C@H](N)C(=O)O` [compound 17, SNAC of a truncated L-thiocysteine-polyketide adduct]: the values for the Michaelis-Menten constant (Km) in the test with GnmT-SH (50 mM sodium phosphate pH 7.2), in the test on WsmR-SH (50 mM sodium phosphate pH 7.2) and at LnmJ-SH (50 mM sodium phosphate pH 7.2) were 7.7 ± 1.2 mM, 6.6 ± 0.7 mM and 9 ± 0.9 mM, respectively.
GNM P [compound 7]: in the test on GnmP [2], the Km was 0.00245 ± 0.00041 mM.

(Values after paper PMC8479088, “Thiocysteine lyases as polyketide synthase domains installing hydropersulfide into natural products and a hydropersulfide methyltransferase” (Nature Communications, 2021).)
